Key:
Format in all cases: in vivo
[1] = test system: pigweed (Amaranthus retroflexus); test: Test A preemergence, visual plant response rating; settings: for Pigweed plant response rating: 125 g ai/ha, preemergence, 0 to 100 scale, 0 no effect, 100 complete control; for Pigweed plant response rating (0 to 100 scale): 500 g ai/ha Preemergence, approx. 10 days
Method in brief: (§1)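 Ratings use a 0–100 visual scale (100 = complete control) against untreated controls, scored about 10 days after greenhouse treatment. Test chemicals were formulated in surfactant-containing non-phytotoxic solvent and applied either as soil spray after planting (preemergence) or onto one- to two-leaf, 2–10 cm plants (postemergence).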

[2] = test system: barnyardgrass (Echinochloa crus-galli); test: Test A preemergence, visual plant response rating; settings: for Barnyardgrass plant response rating: 125 g ai/ha, preemergence, 0 to 100 scale, 0 no effect, 100 complete control; for Barnyardgrass plant response rating (0 to 100 scale): 500 g ai/ha Preemergence, approx. 10 days
Method in brief: as §1

kochia (Kochia scoparia) [3] = test: Test A preemergence, visual plant response rating; settings: for Kochia plant response rating: 125 g ai/ha, preemergence, 0 to 100 scale, 0 no effect, 100 complete control; for Kochia plant response rating (0 to 100 scale): 500 g ai/ha Preemergence, approx. 10 days
Method in brief: as §1

[4] = test system: ragweed (common ragweed, Ambrosia elatior); test: Test A preemergence, visual plant response rating; settings: for Ragweed plant response rating: 125 g ai/ha, preemergence, 0 to 100 scale, 0 no effect, 100 complete control; for Ragweed plant response rating (0 to 100 scale): 500 g ai/ha Preemergence, approx. 10 days
Method in brief: as §1

[5] = test system: Italian ryegrass (Lolium multiflorum); test: Test A preemergence, visual plant response rating; settings: for Ryegrass, Italian plant response rating: 125 g ai/ha, preemergence, 0 to 100 scale, 0 no effect, 100 complete control; for Ryegrass, Italian plant response rating (0 to 100 scale): 500 g ai/ha Preemergence, approx. 10 days
Method in brief: as §1

[6] = test system: foxtail, giant (giant foxtail, Setaria faberii); test: Test A preemergence, visual plant response rating; settings: for Foxtail, Giant plant response rating: 125 g ai/ha, preemergence, 0 to 100 scale, 0 no effect, 100 complete control; for Foxtail, Giant plant response rating (0 to 100 scale): 500 g ai/ha Preemergence, approx. 10 days
Method in brief: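 Formulated in a non-phytotoxic solvent mixture including surfactant, each test chemical was sprayed onto the soil surface after sowing, or onto seedlings 2 to 10 cm high. Roughly 10 days later, plants were compared with untreated controls and rated for injury from 0 (no effect) to 100 (complete control).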

[7] = test system: galium (catchweed bedstraw, Galium aparine); test: Test A postemergence, visual plant response rating; settings: for Galium plant response rating (0 to 100 scale): 500 g ai/ha, postemergence, 0 is no effect, 100 is complete control; for Galium plant response rating: Postemergence, 125 g ai/ha, 0 to 100 scale (0 no effect, 100 complete control)
Method in brief: as §1

corn (Zea mays) = test: Test A postemergence, visual plant response rating; settings: for Corn plant response rating (0 to 100 scale): 500 g ai/ha, postemergence, 0 is no effect, 100 is complete control; for Corn plant response rating: Postemergence, 125 g ai/ha, 0 to 100 scale (0 no effect, 100 complete control)
Method in brief: as §1

[8] = test system: pigweed (Amaranthus retroflexus); test: Test A postemergence, visual plant response rating; settings: for Pigweed plant response rating (0 to 100 scale): 500 g ai/ha, postemergence, 0 is no effect, 100 is complete control; for Pigweed plant response rating: Postemergence, 125 g ai/ha, 0 to 100 scale (0 no effect, 100 complete control)
Method in brief: as §1

[9] = test system: wheat (Triticum aestivum); test: Test A postemergence, visual plant response rating; settings: for Wheat plant response rating (0 to 100 scale): 500 g ai/ha, postemergence, 0 is no effect, 100 is complete control; for Wheat plant response rating: Postemergence, 125 g ai/ha, 0 to 100 scale (0 no effect, 100 complete control)
Method in brief: as §1

[10] = test system: barnyardgrass (Echinochloa crus-galli); test: Test A postemergence, visual plant response rating; settings: for Barnyardgrass plant response rating (0 to 100 scale): 500 g ai/ha, postemergence, 0 is no effect, 100 is complete control; for Barnyardgrass plant response rating: Postemergence, 125 g ai/ha, 0 to 100 scale (0 no effect, 100 complete control)
Method in brief: as §1

kochia (Kochia scoparia) [11] = test: Test A postemergence, visual plant response rating; settings: for Kochia plant response rating (0 to 100 scale): 500 g ai/ha, postemergence, 0 is no effect, 100 is complete control; for Kochia plant response rating: Postemergence, 125 g ai/ha, 0 to 100 scale (0 no effect, 100 complete control)
Method in brief: as §1

[12] = test system: ragweed (common ragweed, Ambrosia elatior); test: Test A postemergence, visual plant response rating; settings: for Ragweed plant response rating (0 to 100 scale): 500 g ai/ha, postemergence, 0 is no effect, 100 is complete control; for Ragweed plant response rating: Postemergence, 125 g ai/ha, 0 to 100 scale (0 no effect, 100 complete control)
Method in brief: as §1

[13] = test system: Italian ryegrass (Lolium multiflorum); test: Test A postemergence, visual plant response rating; settings: for Ryegrass, Italian plant response rating (0 to 100 scale): 500 g ai/ha, postemergence, 0 is no effect, 100 is complete control; for Ryegrass, Italian plant response rating: Postemergence, 125 g ai/ha, 0 to 100 scale (0 no effect, 100 complete control)
Method in brief: as §1

[14] = test system: blackgrass (Alopecurus myosuroides); test: Test A postemergence, visual plant response rating; settings: for Blackgrass plant response rating (0 to 100 scale): 500 g ai/ha, postemergence, 0 is no effect, 100 is complete control; for Blackgrass plant response rating: Postemergence, 125 g ai/ha, 0 to 100 scale (0 no effect, 100 complete control)
Method in brief: as §1

[15] = test system: foxtail, giant (giant foxtail, Setaria faberii); test: Test A postemergence, visual plant response rating; settings: for Foxtail, Giant plant response rating (0 to 100 scale): 500 g ai/ha, postemergence, 0 is no effect, 100 is complete control; for Foxtail, Giant plant response rating: Postemergence, 125 g ai/ha, 0 to 100 scale (0 no effect, 100 complete control)
Method in brief: as §1

[16] = test system: ducksalad (Heteranhera limosa); test: Test B flooded paddy test, visual plant response rating; settings: 250 g ai/ha, Flood, applied to paddy water, 2-leaf stage, evaluated after 13 to 15 days
Method in brief: (§2)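 2-leaf plants; pots flooded 3 cm over soil surface; compound dosed straight into the floodwater; depth kept constant; greenhouse 13–15 d; visual rating vs. untreated controls.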

[17] = test system: barnyardgrass (Echinochloa crus-galli); test: as above; settings: 250 g ai/ha, Flood, applied to paddy water, 2-leaf stage, evaluated after 13 to 15 days
Method in brief: as §2

[18] = test system: sedge, umbrella (small-flower umbrella sedge, Cyperus difformis); test: as above; settings: 250 g ai/ha, Flood, applied to paddy water, 2-leaf stage, evaluated after 13 to 15 days
Method in brief: as §2

rice (Oryza sativa) = test: as above; settings: 250 g ai/ha, Flood, applied to paddy water, 2-leaf stage, evaluated after 13 to 15 days
Method in brief: as §2

| SMILES | Pigweed plant response rating [1] | Pigweed plant response rating (0 to 100 scale) [1] | Barnyardgrass plant response rating [2] | Barnyardgrass plant response rating (0 to 100 scale) [2] | Kochia plant response rating (kochia (Kochia scoparia) [3]) | Kochia plant response rating (0 to 100 scale) (kochia (Kochia scoparia) [3]) | Ragweed plant response rating [4] | Ragweed plant response rating (0 to 100 scale) [4] | Ryegrass, Italian plant response rating [5] | Ryegrass, Italian plant response rating (0 to 100 scale) [5] | Foxtail, Giant plant response rating [6] | Foxtail, Giant plant response rating (0 to 100 scale) [6] | Galium plant response rating (0 to 100 scale) [7] | Galium plant response rating [7] | Corn plant response rating (0 to 100 scale) (corn (Zea mays)) | Corn plant response rating (corn (Zea mays)) | Pigweed plant response rating (0 to 100 scale) [8] | Pigweed plant response rating [8] | Wheat plant response rating (0 to 100 scale) [9] | Wheat plant response rating [9] | further results |
| --- | --- | --- | --- | --- | --- | --- | --- | --- | --- | --- | --- | --- | --- | --- | --- | --- | --- | --- | --- | --- | --- |
| CO/N=C(\c1sccc1C)c1c(O)c(C)nn(C)c1=O [Compound 42] | 0 | 20 | 0 | 0 | 0 | 10 | 60 | 80 | 0 | 20 | 0 | 0 | 60 | 70 | 0 | 0 | 80 | 60 | 0 | 0 | Barnyardgrass plant response rating (0 to 100 scale) [10]: 10; Barnyardgrass plant response rating [10]: 0; Kochia plant response rating (0 to 100 scale) (kochia (Kochia scoparia) [11]): 50; Kochia plant response rating (kochia (Kochia scoparia) [11]): 20; Ragweed plant response rating (0 to 100 scale) [12]: 50; Ragweed plant response rating [12]: 40; Ryegrass, Italian plant response rating (0 to 100 scale) [13]: 70; Ryegrass, Italian plant response rating [13]: 50; Blackgrass plant response rating (0 to 100 scale) [14]: 0; Blackgrass plant response rating [14]: 0; Foxtail, Giant plant response rating (0 to 100 scale) [15]: 10; Foxtail, Giant plant response rating [15]: 0; Plant response rating, Ducksalad (0 to 100 scale, 0 is no effect, 100 is complete control) [16]: 20; Plant response rating, Barnyardgrass (0 to 100 scale, 0 is no effect, 100 is complete control) [17]: 15; Plant response rating, Sedge, Umbrella (0 to 100 scale, 0 is no effect, 100 is complete control) [18]: 20; Plant response rating, Rice (0 to 100 scale, 0 is no effect, 100 is complete control) (rice (Oryza sativa)): 10 |
| CON=C(c1cccc(C(F)(F)F)c1Cl)c1c(O)c(C)nn(C)c1=O [Compound 102] | 0 | 10 | 0 | 40 | 0 | 0 | 20 | 40 | 20 | 50 | 0 | 30 | 70 | 40 | 0 | 0 | 40 | 20 | 30 | 0 | Barnyardgrass plant response rating (0 to 100 scale) [10]: 30; Barnyardgrass plant response rating [10]: 20; Kochia plant response rating (0 to 100 scale) (kochia (Kochia scoparia) [11]): 20; Kochia plant response rating (kochia (Kochia scoparia) [11]): 20; Ragweed plant response rating (0 to 100 scale) [12]: 30; Ragweed plant response rating [12]: 10; Ryegrass, Italian plant response rating (0 to 100 scale) [13]: 30; Ryegrass, Italian plant response rating [13]: 0; Blackgrass plant response rating (0 to 100 scale) [14]: 30; Blackgrass plant response rating [14]: 0; Foxtail, Giant plant response rating (0 to 100 scale) [15]: 30; Foxtail, Giant plant response rating [15]: 10; Plant response rating, Ducksalad (0 to 100 scale, 0 is no effect, 100 is complete control) [16]: 0; Plant response rating, Barnyardgrass (0 to 100 scale, 0 is no effect, 100 is complete control) [17]: 0; Plant response rating, Sedge, Umbrella (0 to 100 scale, 0 is no effect, 100 is complete control) [18]: 0; Plant response rating, Rice (0 to 100 scale, 0 is no effect, 100 is complete control) (rice (Oryza sativa)): 0 |
| CON=C(c1cccc(C(F)(F)F)c1)c1c(O)c(C)nn(C)c1=O [Compound 56] | 30 | 90 | 0 | 50 | 0 | 60 | 70 | 50 | 0 | 40 | 0 | 40 | 80 | 70 | 0 | 0 | 70 | 50 | 0 | 0 | Barnyardgrass plant response rating (0 to 100 scale) [10]: 10; Barnyardgrass plant response rating [10]: 0; Kochia plant response rating (0 to 100 scale) (kochia (Kochia scoparia) [11]): 50; Kochia plant response rating (kochia (Kochia scoparia) [11]): 20; Ragweed plant response rating (0 to 100 scale) [12]: 50; Ragweed plant response rating [12]: 10; Ryegrass, Italian plant response rating (0 to 100 scale) [13]: 50; Ryegrass, Italian plant response rating [13]: 20; Blackgrass plant response rating (0 to 100 scale) [14]: 40; Blackgrass plant response rating [14]: 30; Foxtail, Giant plant response rating (0 to 100 scale) [15]: 0; Foxtail, Giant plant response rating [15]: 0; Plant response rating, Ducksalad (0 to 100 scale, 0 is no effect, 100 is complete control) [16]: 30; Plant response rating, Barnyardgrass (0 to 100 scale, 0 is no effect, 100 is complete control) [17]: 0; Plant response rating, Sedge, Umbrella (0 to 100 scale, 0 is no effect, 100 is complete control) [18]: 15; Plant response rating, Rice (0 to 100 scale, 0 is no effect, 100 is complete control) (rice (Oryza sativa)): 20 |
